Laboratory results taken from patent publication US20210128675A1, “LHRH-PACLITAXEL CONJUGATES AND METHODS OF USE” (priority 2019, published 2021).
Entries after “also recorded” stand apart in the source; their conditions may differ.

How the values were obtained:
[1] = tested on: MDA-MB-231 human triple negative breast cancer cells xenograft; assay: subcutaneous xenograft tumor shrinkage study; assay type: in vivo, Athymic Nude-Foxn1nu strain mice; details: for tumor volume, 21-day group: after about two weeks, mean volume before treatment 98 mm^3; for xenograft tumor size, 28-day group: two weeks of drug administration, mean volume before treatment 230 mm^3; for tumor outcome, early stage (day 14 group): 10 mg/kg
Protocol: In this section, cell culture, tumor induction and drug injection studies were carried out. First, 20 μl of 1×10^6 MDA-MB-231 human triple negative cancer cells were cultured in T75 tissue culture flasks (CELLTREAT, Pepperell, Mass., USA). This was carried out at 37° C. until 70% confluence was reached. The cells were grown under normal atmospheric pressure levels in a “L15′ medium” that is typically made up of: L-15 medium (ATCC, Manassas, Va., USA), supplemented with 100 I.U./ml penicillin/100 µg/ml streptomycin and 10% FBS (ATCC, Manassas, Va., USA).
Forty 4-weekold Athymic Nude-FoxnInu strain mice with individual weights of ˜17 g each was purchase from Envigo (Somerset, N.J., USA). These animals were approved for use in the current work by the University of Massachusetts Medical School Institutional Animal Care and Use Committee (UMMS IACUC) with docket #A2630-17. All of the animals were maintained and used according to the approved UMMS IACUC procedure and guideline.
Subcutaneous tumor xenografts were induced by the injection of 5.0×10^6 of MDA-MB-231 human triple negative breast cancer cells (suspended in sterile saline) into the interscapular region (for a better angiogenic response). Tumor formation was carefully assessed by palpation. Tumor growth was then monitored daily with the digital calipers. The tumor volume was calculated using the following modified ellipsoidal formula: […]
where length was the longest axis of the tumor and width is the measurement at a right angle to the length.
The mice were randomly chosen in groups of three (for each drugs injection) into their respective treatment groups. These include groups of mice with early stage (14 days after tumor induction), mid stage (21 days after tumor induction) and late stage (28 days after tumor induction) tumors. The weights of the mice and their tumor sizes were monitored and measured (using digital calipers) on a daily basis. These precise volumes and measured weights of the mice were used to guide the administration of the drugs. They were also used to monitor toxicity and side effects associated with the drugs. For each of the study groups, 3 mice each were randomly assigned to injection of 10 mg/kg of the specific drug configuration (PTX, [D-Lys6]LHRH-conjugated PTX and DMSO).
Different groups of mice were injected intravenously with each drug through their tail veins. This was done after tumor growth for 14, 21 and 28 days. The mice were injected with 10 mg/kg per week, during the two-week periods in which the effects of drugs were investigated. Following each drug administration, the tumor sizes were monitored with calipers on a daily basis (every 24 hours). In this way, the possible tumor shrinkage, growth or elimination, were monitored on a daily basis. Furthermore, the health status of the mice was monitored on a daily basis. This was done by monitoring the mice for signs of weight loss or altered motor ability in their cages. At the end of study, the mice were euthanized, following the approved IACUC guidelines and procedures. Thereafter, tumor tissues were excised from all of the mice, including tissues from their major organs (kidneys, spleen, liver and lungs).

[2] = tested on: knocked down LHRH receptors of breast cancer cells; assay: alamar blue reduction after siRNA knockdown of LHRH receptors; assay type: cell-based, human; details: cells treated with siRNAs; 5 μM; 24, 48 and 72 hours
[3] = tested on: triple negative breast tumor; assay: drug-tissue adhesion study (drug-coated AFM tip); assay type: binding, mice
Protocol: In an effort to understand the specificity in the targeting of triple negative breast cancer via the receptors that are over-expressed on the tumor, adhesion measurements were carried out on the control xenograft tissue samples at different stages of tumor development. Adhesion forces and interactions (between the different drug molecules and receptors on the surfaces of the tumor tissues at different stages of development) were explored in an effort to understand the interactions of the drugs with the tumor and non-tumor tissue.
Antigen retrieval was carried out on the fixed tissue. This involved exposing target antigens to receptors on a […] thick microtome tissue slice. These sliced tissues were prepared for adhesion measurements in an Asylum MFP3D-Bio Atomic Force Microscope (AFM) (Asylum Research, Oxford Instrument, CA, USA). The AFM tips RESP-20 AFM tip (Bruker Santa Barbara, Calif., USA) were dip-coated with paclitaxel or [D-Lys6]LHRH-conjugated paclitaxel using the techniques described in Obayemi et al. (J. Mech. Behav. Biomed. Mater., 68 (2017), pp. 276-286).
A simple AFM tip dip-coating technique (J. D. Obayemi et al. Materials Science and Engineering C. 66, (2016), 51-65, Hampp, E. et al. Res. 27 (22), 2891, Hutter, J. L. et al. Instrum. 64, 1868) (of the drugs) was used to coat the AFM tips at room-temperature (˜23° C.). In addition, a positive control of LHRH peptides was coated onto the AFM tips and used to determine the adhesion forces between the receptors on breast cancer tissue. All of the coated AFM tips were air-dried for about 6 h and kept in a desiccator overnight before the adhesion measurements.
The spring constants of the coated and uncoated AFM tips were measured experimentally using the thermal tune method (J.D. Obayemi, et al. Mater., 68 (2017), 276-286). This was done to obtain the actual spring constants that were used to calculate the pull-off forces from Hooke's law. The adhesion interactions were measured for the following configurations of coatings on the AFM tips and breast cancer tumor at different stages on the mice: […]

[4] = histopathological and toxicity studies; details: 10 mg/kg weekly for two weeks; for qualitative toxicity (mortality, body weight, clinical signs): tumor-bearing mice
Protocol: Double doses of 10 mg/kg of PTX and PTX-[D-Lys6]LHRH were then administered (on a weekly basis for two weeks) to female athymic nude mice that were subcutaneously-induced with TNBC. In this way, qualitative toxicity was studied by considering differences in mortality, changes in body weight, clinical signs, gross observations and the histopathology of the lungs, kidneys and the liver at different stages of tumor development. This was done for the different drugs and cancer treatment durations. Daily observations and weight measurements were also used to check for possible animal reactions to the drugs, physiological changes, weight loss/gain, and the general well-being of the mice.
Hematoxylin and eosin (H and E) staining was also carried out. This was used for the identification of tumor necrosis and the examination of histologic changes that occurred in vital organs, following the administration of the drugs. Briefly, formalin-fixed, paraffin-embedded tissue/organs (tumor, kidneys, liver and lungs) samples (5 m) were injected with PTX, [D-Lys6]LHRH-conjugated PTX drugs and DMSO. These were hydrated by passing them through decreasing concentrations (100, 90 &70%) of alcohol baths and water.
The hydrated tissue sections were then stained in hematoxylin solution for 5 mins. This was followed by rinsing with tap water for 3 minutes and differentiation in 1% acid alcohol for 5 minutes. Tap water was then used to rinse (three times) before dipping the sections in ammonia water for 2 minutes. This was followed by staining with eosin for 10 mins. The treated sliced samples were dehydrated in solution with increasing concentrations of alcohols followed by xylene. Finally, a few drops of Permount Mounting Medium were used to mount the resulting samples. The stained slides were then imaged with a 20× objective lens using a TS100F Nikon microscope (Nikon Instruments Inc., Melville, N.Y., USA) coupled with a DS-Fi3 C camera.

MDA-MB-231 cells = assay: confocal fluorescence imaging of cellular uptake and cytotoxicity; assay type: cell-based, human; details: 30 μM, 6 hours
MDA MB 231 cells = assay: alamar blue cell viability and cytotoxicity assay; assay type: cell-based, human
Protocol: The alamar blue cell viability and cytotoxicity assay was used to study the MDA MB 231 cells lines in the log phase of growth. MDA MB 231 cells were harvested with trypsin-EDTA in the presence of Dulbecco Phosphate Buffer (DPBS). 10^4 cells/well were then seeded in 12-well plates in L15+ medium (L15 medium with cell medium supplement of FBS and penicillin/streptomycin). After a 3-hour attachment period (of the cells), respective concentrations of 15 μM, 25 μM and 30 μM of paclitaxel, LRH-conjugated paclitaxel (of Example 1) and DMSO (in culture medium) were added to the 12-well plates consisting of 10^4 cells. Cell viability was monitored using the alamar blue cell viability and cytotoxicity reagent (Thermo Fisher Scientific, Waltham, Mass., USA) at times of 0 h, 18 h, 24 h, 48 h and 72 h, following drug addition. At each time point, the culture medium was replaced with 1 ml of 10% alamar blue solution (in culture medium). The 12-well plates were then incubated at 37° C. for different durations. After each time point, 100 µl of the solution incubated with alamar blue solution (ABS) was transferred into triplicate wells of a black opaque 96-well plate (Thermo Fisher Scientific, Waltham, Mass., USA).
The fluorescence intensities of the cell medium supernatant incubated with ABS were measured at 544 nm excitation and 590 nm emission using a 1420 Victor3 multi-label plate reader (Perkin Elmer, Waltham, Mass., USA). The percentage of alamar blue reduction, the percentage difference in cell population between the treated and untreated cells, and the percentage of cell growth inhibition, were determined using a combination of the ABS and cell viability studies. […]
where, FIsample=fluorescence intensity of the (treated or untreated) cells, FI10% AB=fluorescence intensity of 10% alamar blue reagent (negative control) and FI10% R=fluorescence intensity of 100% reduced alamar blue (positive control).
FItreated=fluorescence intensity of treated cells and FIcells=fluorescence intensity of untreated cells

[5] = 10 mg/kg per week IV, two weeks

What does the source list for `CC(=O)O[C@H]1C(=O)[C@@]2(C)[C@H]([C@H](OC(=O)c3ccccc3)[C@]3(O)C[C@H](OC(=O)[C@H](O)[C@@H](NC(=O)c4ccccc4)c4ccccc4)C(C)=C1C3(C)C)[C@]1(OC(C)=O)CO[C@@H]1C[C@@H]2O` [PTX, paclitaxel]?
tumor volume, 21-day group ([1]; 10 mg/kg per week IV): 86.83 mm^3; final tumor sizes, day 14 group ([1]; two IV injections (one per week) of 10 mg/kg, mean volume before treatment 67 mm^3): ~49.1 mm^3; xenograft tumor size, 28-day group ([1]; 10 mg/kg per week IV): 299.2 mm^3; cell viability, PTX versus LHRH-conjugated PTX [2]: no significant differences in cell viability

Which results are given for LHRH-PTX?
adhesion force relative to unconjugated PTX, early stage tumor [3]: nearly three times; adhesion force relative to unconjugated PTX, late stage tumor [3]: about 2 times; adhesion force relative to unconjugated PTX, mid stage tumor [3]: more than three times; qualitative toxicity (mortality, body weight, clinical signs) [4]: No clinical signs, differences in mortality, or changes in body weight; qualitative toxicity (mortality, body weight, clinical signs) ([4]; listed as [D-Lys6]LHRH-conjugated paclitaxel): without any evidence of toxicity; histopathology of liver, lung and kidneys (H&E) ([4]; listed as [D-Lys6]LHRH-conjugated PTX): no significant histological or significant pathological changes; also recorded: no evidence of liver cell hyaline degeneration and necrosis, and no pulmonary edema or hyperplasia observed in the lungs; disruption of actin filaments, vinculin structures and cell membranes (MDA-MB-231 cells): more evident; tumor outcome, mid- and late-stage tumors (21 and 28 days) ([1]; 10 mg/kg IV): significant shrinkage; decrease in xenograft volume compared to unconjugated PTX, 21-day group [1, 5]: 91%; percentage reduction in xenograft tumor volume compared to unconjugated PTX, 28-day group [1, 5]: 90.2%; structural changes in tumor cells/tissue (TEM) ([1]; 21-day and 28-day treatment groups): greater structural changes; tumor volume, 21-day group ([1]; 10 mg/kg per week IV): 7.76 mm^3; necrosis in tumor tissue (H&E) ([1]; compared with unconjugated PTX): higher levels of necrosis in the tumors; tumor outcome, early stage (day 14 group) ([1]; two IV injections (one per week) of 10 mg/kg, listed as LHRH-conjugated paclitaxel): elimination of early stage breast tumors; tumor outcome, early stage (day 14 group) ([1]; two IV injections (one per week) of 10 mg/kg, listed as [D-Lys6]LHRH-conjugated PTX): eliminated; tumor outcome, early stage (day 14 group) ([1]; two IV injections (one per week) of 10 mg/kg, listed as [D-Lys6]LHRH-conjugated paclitaxel): eliminated the tumors; xenograft tumor size, 28-day group ([1]; 10 mg/kg per week IV): 29.4 mm^3; cell viability, PTX versus LHRH-conjugated PTX [2]: no significant differences in cell viability; percentage cell growth inhibition (MDA MB 231 cells; 15 μM, 25 μM, and 30 μM, 72 h): effective at inhibiting the growth of MDA MB 231 cells; cytotoxicity on coincubation with LHRH (MDA MB 231 cells; coincubation of LHRH, 72 h): decreased the cytoxicity; cell viability (percentage alamar blue reduction) compared with unconjugated drug (MDA MB 231 cells; without siRNA, 18, 24, 48 and 72 h): significantly reduced cell viability than the unconjugated drugs
